One data set has as its system K-562 cell line. The experiment in a line: K-562 cell line activity. It counts as cell-based. The settings on record: Homo sapiens, K562.
In a further data set the target is T1, JAK1 (Homo sapiens, UniProt P23458).
T1 construct: purchased Reaction Biology Corporation
The experiment in a line: Kinase screening, HotSpot assay (Reaction Biology). It counts as biochemical. The method, then:
(§1) Kinase screening was performed using a “HotSpot” assay platform method by Reaction Biology Corporation. The reaction buffer used herein contained 20 mM HEPES (pH 7.5), 10 mM MgCl2, 1 mM EGTA, 0.02% Brij35, 0.02 mg/mL BSA, 0.1 mM Na3VO4, 2 mM DTT and 1% DMSO. The required cofactors were added in accordance with the kinase reaction. Freshly made buffer and cofactors were added at a concentration of 20 μM during the selected enzyme reaction. A solution of the test compound in dimethylsulfoxide (DMSO) was added at a suitable concentration to this solution. In order to initiate reaction, […] (specific activity […]) was added and incubated at room temperature for 2 hours. The test compound was screened at a starting concentration of 20 μM in a 10-dose IC50 mode. IC50 of Staurosporine used as a control drug was obtained at a starting concentration of 20 μM in a 10-dose IC50 mode.

In the next data set the target is T2, TYRO3/SKY (Homo sapiens, UniProt Q06418).
T2 construct: purchased Reaction Biology Corporation
In words: Kinase screening, HotSpot assay (Reaction Biology). It counts as biochemical. The method, then:
as §1

Another data set concerns the target T3, c-MER (Homo sapiens, UniProt Q12866).
T3 construct: purchased Reaction Biology Corporation
In words: Kinase screening, HotSpot assay (Reaction Biology). The format is biochemical. Here is the method: as §1

In a further data set the target is T4, JAK2(V617F) (Homo sapiens, UniProt O60674, V617F).
T4 construct: purchased Reaction Biology Corporation
The experiment in a line: Kinase screening, HotSpot assay (Reaction Biology). It counts as biochemical. Here is the method: as §1

The next data set addresses T5, JAK2 (Homo sapiens, UniProt O60674).
T5 construct: purchased Reaction Biology Corporation
The experiment in a line: Kinase screening, HotSpot assay (Reaction Biology). The format is biochemical. Here is the method: as §1

In the next data set the target is T6, LRRK2 (Homo sapiens, UniProt Q5S007).
T6 construct: purchased Reaction Biology Corporation
The experiment in a line: Kinase screening, HotSpot assay (Reaction Biology). It counts as biochemical. Here is the method: as §1

For another data set, the target named is T7, SIK2 (Homo sapiens, UniProt Q9H0K1).
T7 construct: purchased Reaction Biology Corporation
The experiment in a line: Kinase screening, HotSpot assay (Reaction Biology). It counts as biochemical. The method, then:
as §1

Another data set deals with T8, RET (Homo sapiens, UniProt P07949).
T8 construct: purchased Reaction Biology Corporation
The experiment in a line: Kinase screening, HotSpot assay (Reaction Biology). The format is biochemical. Here is the method:
as §1

The target in the next data set is T9, ACK1 (Homo sapiens, UniProt Q07912).
T9 construct: purchased Reaction Biology Corporation
The experiment in a line: Kinase screening, HotSpot assay (Reaction Biology). It counts as biochemical. The method, then: as §1

The target in another data set is T10, JAK3 (Homo sapiens, UniProt P52333).
T10 construct: purchased Reaction Biology Corporation
In words: Kinase screening, HotSpot assay (Reaction Biology). The format is biochemical. The method, then:
as §1

In a further data set the target is T11, AXL (Homo sapiens, UniProt P30530).
T11 construct: purchased Reaction Biology Corporation
In words: Kinase screening, HotSpot assay (Reaction Biology). The format is biochemical. Here is the method: as §1

A further data set deals with T12, PKCmu/PRKD1 (Homo sapiens, UniProt Q15139).
T12 construct: purchased Reaction Biology Corporation
The experiment in a line: Kinase screening, HotSpot assay (Reaction Biology). The format is biochemical. Here is the method: as §1

In data set [1] the target is T13, ARK5/NUAK1 (Homo sapiens, UniProt O60285).
T13 construct: purchased Reaction Biology Corporation
T13 sequence (O60285 1-661): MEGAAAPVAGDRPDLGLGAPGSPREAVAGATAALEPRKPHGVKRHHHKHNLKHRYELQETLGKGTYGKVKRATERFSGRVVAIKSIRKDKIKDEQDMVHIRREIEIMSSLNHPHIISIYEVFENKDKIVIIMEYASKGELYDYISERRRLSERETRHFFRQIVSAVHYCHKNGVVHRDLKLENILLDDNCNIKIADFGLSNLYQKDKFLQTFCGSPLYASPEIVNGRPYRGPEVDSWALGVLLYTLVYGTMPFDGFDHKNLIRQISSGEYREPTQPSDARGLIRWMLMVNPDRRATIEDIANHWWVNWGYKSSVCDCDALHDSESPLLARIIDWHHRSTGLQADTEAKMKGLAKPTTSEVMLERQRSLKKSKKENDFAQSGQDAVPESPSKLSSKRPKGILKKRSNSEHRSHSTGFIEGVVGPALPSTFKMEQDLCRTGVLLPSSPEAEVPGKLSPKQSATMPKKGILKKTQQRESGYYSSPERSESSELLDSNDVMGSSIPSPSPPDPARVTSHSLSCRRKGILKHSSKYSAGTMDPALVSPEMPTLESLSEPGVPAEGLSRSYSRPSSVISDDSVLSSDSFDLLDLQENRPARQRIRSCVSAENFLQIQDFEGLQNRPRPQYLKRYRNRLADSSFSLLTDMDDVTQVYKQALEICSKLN
The experiment in a line: Kinase screening, HotSpot assay (Reaction Biology). The format is biochemical. Here is the method: as §1

In the next data set the target is T14, mLK1/MAP3K9 (Homo sapiens, UniProt P80192).
T14 construct: purchased Reaction Biology Corporation
In words: Kinase screening, HotSpot assay (Reaction Biology). The format is biochemical. The method, then:
as §1

In another data set the target is T15, AXL(R499C) (Homo sapiens, UniProt P30530, R499C).
T15 construct: purchased Reaction Biology Corporation
In words: Kinase screening, HotSpot assay (Reaction Biology). The format is biochemical. The method, then: as §1

The next data set relates to MV-4-11 cells. In words: MV-4-11 cell screening (viable cells by ATP luminescence). The format is cell-based. The settings on record: Homo sapiens, MV4-11, 72 hours incubation, read-out: MV-4-11 cell line (IC50). Here is the method: A control compound was a 1 mM Staurosporine solution in DMSO.
25 μL of culture media containing 2,000 MV-4-11 cells were added and incubated at 37° C. in the presence of 5% CO2 for 72 hours. Then, the culture solution was mixed in an orbital shaker for 2 minutes and incubated at room temperature for 15 minutes. […] IC50 values are measured using the GraphPad Prism 4 program in accordance with the sigmoidal dose-response equation.

The next data set relates to Ba/F3 parental. The experiment in a line: Ba/F3 parental growth inhibition. It counts as cell-based. The settings on record: Mus musculus, BaF3; Ba/F3 parental cells.
The target of the next data set is T16, FLT3 (Homo sapiens, UniProt P36888).
T16 construct: purchased Reaction Biology Corporation
T16 sequence (P36888 27-993): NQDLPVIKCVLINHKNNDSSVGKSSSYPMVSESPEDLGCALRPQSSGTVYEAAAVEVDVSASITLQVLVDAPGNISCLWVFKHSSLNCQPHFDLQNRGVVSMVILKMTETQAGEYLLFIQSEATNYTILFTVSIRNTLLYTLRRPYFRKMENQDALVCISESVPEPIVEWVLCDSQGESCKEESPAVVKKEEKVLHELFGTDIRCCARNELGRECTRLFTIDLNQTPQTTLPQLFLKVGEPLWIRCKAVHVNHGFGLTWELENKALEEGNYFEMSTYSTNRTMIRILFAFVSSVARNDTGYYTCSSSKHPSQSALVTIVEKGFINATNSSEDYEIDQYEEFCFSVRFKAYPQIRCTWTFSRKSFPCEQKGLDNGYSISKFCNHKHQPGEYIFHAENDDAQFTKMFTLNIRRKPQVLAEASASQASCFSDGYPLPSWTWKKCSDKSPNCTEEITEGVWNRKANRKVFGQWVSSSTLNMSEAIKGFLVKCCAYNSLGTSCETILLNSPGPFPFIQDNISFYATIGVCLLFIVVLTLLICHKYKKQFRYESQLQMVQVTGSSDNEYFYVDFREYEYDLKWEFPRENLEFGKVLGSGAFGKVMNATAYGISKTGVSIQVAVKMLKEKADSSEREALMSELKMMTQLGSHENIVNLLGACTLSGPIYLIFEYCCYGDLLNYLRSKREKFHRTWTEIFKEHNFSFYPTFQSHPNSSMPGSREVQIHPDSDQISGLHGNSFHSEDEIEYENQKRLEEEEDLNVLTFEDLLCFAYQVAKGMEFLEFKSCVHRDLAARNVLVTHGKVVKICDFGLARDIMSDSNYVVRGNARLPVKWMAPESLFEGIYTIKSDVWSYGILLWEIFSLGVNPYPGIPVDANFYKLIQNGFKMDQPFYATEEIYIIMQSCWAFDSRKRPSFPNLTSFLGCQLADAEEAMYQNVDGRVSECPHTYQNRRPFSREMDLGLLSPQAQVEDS
In words: Kinase screening, HotSpot assay (Reaction Biology). The format is biochemical. The method, then:
Kinase screening was performed using a “HotSpot” assay platform method by Reaction Biology Corporation. The reaction buffer used herein contained 20 mM HEPES (pH 7.5), 10 mM MgCl2, 1 mM EGTA, 0.02% Brij35, 0.02 mg/mL BSA, 0.1 mM Na3VO4, 2 mM DTT and 1% DMSO. The required cofactors were added in accordance with the kinase reaction. Freshly made buffer and cofactors were added at a concentration of 20 μM during the selected enzyme reaction. A solution of the test compound in dimethylsulfoxide (DMSO) was added at a suitable concentration to this solution.

For another data set, the system named is Ba/F3 FLT3-ITD. In words: Ba/F3 FLT3-ITD growth inhibition. It counts as cell-based. The settings on record: Ba/F3 FLT3-ITD cells.
The target in data set [2] is T13, ARK5/NUAK1. The settings on record: comparative values quoted in text, source not stated; read-out: ARK5/NUAK1 IC50 of comparative compounds; cited from earlier work.
For another data set, the target named is CYP 2C19 (Homo sapiens, UniProt P33261). The experiment in a line: CYP450 assay (luminescence). The format is in vitro ADME. The settings on record: control compound at 100 μM, read-out: inhibitory activity against human CYP 2C19. The method, then:
The resulting substance was reacted with NADPH for 20 minutes at 37° C. and a detection reagent was added to terminate the reaction. After stabilization at room temperature for 20 minutes, a luminescence signal was measured.

The next data set has as its target CYP 3A4 (Homo sapiens, UniProt P08684). The experiment in a line: CYP450 assay (luminescence). It counts as in vitro ADME. The settings on record: compound at 10 μM, read-out: inhibitory activity against human CYP 3A4. Here is the method:
(§2) Compound 5 and a positive control stock solution were diluted with water to prepare a 40 μM working solution, and a solution containing an enzyme and a substrate was prepared using water and buffer. Compound 5/control/positive control and the solution were each dispensed on a 96-well and preincubated at 37° C. for 10 minutes. The resulting substance was reacted with NADPH for 20 minutes at 37° C. and a detection reagent was added to terminate the reaction. After stabilization at room temperature for 20 minutes, a luminescence signal was measured.

In a further data set the target is CYP 1A2 (Homo sapiens, UniProt P05177). In words: CYP450 assay (luminescence). The format is in vitro ADME. The following applies: compound at 10 μM. The method, then: as §2

Read-outs that look alike come from different tables or passages of the source.

T4 sequence (O60674 whole entry V617F): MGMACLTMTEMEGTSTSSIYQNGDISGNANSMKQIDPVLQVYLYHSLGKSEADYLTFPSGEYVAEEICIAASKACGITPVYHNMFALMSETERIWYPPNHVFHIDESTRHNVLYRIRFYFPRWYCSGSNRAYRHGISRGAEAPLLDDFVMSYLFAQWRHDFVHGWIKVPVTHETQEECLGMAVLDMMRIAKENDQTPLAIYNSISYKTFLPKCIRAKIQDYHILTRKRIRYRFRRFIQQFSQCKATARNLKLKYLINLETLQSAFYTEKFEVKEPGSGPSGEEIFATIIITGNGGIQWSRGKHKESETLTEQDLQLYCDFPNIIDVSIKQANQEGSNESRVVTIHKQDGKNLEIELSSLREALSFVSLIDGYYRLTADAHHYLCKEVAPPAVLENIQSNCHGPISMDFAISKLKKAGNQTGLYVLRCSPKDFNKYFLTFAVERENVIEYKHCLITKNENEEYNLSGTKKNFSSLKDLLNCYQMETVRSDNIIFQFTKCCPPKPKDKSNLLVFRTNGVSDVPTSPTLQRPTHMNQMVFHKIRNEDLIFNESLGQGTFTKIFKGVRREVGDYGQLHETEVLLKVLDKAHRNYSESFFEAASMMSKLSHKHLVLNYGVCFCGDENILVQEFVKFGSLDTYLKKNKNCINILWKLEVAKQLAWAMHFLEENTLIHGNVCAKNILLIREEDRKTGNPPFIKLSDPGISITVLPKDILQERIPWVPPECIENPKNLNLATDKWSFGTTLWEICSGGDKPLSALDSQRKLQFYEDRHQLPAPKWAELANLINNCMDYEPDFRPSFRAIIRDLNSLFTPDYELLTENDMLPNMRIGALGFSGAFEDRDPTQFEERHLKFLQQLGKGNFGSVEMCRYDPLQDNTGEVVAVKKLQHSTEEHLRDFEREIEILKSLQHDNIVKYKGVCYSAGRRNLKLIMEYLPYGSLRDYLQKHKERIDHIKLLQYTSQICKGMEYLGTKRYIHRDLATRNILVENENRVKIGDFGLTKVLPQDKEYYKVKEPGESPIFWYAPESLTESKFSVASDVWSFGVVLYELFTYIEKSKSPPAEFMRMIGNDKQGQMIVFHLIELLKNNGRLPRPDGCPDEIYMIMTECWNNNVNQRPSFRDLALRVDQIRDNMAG
T1 sequence (P23458 whole entry): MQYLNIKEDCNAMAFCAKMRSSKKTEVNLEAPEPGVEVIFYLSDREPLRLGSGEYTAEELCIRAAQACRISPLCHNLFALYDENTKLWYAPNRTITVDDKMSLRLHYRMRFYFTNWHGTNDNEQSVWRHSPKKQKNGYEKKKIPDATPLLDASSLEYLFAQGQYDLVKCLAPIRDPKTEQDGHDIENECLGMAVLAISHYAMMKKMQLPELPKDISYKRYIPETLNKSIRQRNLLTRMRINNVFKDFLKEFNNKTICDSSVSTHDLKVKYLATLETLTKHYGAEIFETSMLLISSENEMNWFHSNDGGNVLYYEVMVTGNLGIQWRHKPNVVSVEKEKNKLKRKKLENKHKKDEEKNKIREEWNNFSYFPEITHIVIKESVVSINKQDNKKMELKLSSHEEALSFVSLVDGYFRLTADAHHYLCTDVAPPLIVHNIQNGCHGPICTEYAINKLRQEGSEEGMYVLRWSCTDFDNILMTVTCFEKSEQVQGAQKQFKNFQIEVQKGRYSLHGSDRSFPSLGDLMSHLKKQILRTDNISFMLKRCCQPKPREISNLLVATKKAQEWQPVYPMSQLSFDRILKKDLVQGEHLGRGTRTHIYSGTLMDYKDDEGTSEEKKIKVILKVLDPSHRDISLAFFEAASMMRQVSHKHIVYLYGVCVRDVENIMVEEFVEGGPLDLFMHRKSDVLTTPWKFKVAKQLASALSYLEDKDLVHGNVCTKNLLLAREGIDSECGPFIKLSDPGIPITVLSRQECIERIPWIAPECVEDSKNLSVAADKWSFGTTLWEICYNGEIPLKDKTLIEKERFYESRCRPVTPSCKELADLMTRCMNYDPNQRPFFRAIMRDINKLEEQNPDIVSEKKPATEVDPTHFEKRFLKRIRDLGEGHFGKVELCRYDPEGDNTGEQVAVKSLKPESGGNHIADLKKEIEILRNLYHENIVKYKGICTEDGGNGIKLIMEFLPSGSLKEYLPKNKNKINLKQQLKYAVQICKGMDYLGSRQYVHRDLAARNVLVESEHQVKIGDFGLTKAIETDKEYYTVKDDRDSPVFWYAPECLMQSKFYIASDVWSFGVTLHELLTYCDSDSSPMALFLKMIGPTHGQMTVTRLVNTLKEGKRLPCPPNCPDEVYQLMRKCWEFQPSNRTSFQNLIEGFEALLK
T9 sequence (Q07912 whole entry): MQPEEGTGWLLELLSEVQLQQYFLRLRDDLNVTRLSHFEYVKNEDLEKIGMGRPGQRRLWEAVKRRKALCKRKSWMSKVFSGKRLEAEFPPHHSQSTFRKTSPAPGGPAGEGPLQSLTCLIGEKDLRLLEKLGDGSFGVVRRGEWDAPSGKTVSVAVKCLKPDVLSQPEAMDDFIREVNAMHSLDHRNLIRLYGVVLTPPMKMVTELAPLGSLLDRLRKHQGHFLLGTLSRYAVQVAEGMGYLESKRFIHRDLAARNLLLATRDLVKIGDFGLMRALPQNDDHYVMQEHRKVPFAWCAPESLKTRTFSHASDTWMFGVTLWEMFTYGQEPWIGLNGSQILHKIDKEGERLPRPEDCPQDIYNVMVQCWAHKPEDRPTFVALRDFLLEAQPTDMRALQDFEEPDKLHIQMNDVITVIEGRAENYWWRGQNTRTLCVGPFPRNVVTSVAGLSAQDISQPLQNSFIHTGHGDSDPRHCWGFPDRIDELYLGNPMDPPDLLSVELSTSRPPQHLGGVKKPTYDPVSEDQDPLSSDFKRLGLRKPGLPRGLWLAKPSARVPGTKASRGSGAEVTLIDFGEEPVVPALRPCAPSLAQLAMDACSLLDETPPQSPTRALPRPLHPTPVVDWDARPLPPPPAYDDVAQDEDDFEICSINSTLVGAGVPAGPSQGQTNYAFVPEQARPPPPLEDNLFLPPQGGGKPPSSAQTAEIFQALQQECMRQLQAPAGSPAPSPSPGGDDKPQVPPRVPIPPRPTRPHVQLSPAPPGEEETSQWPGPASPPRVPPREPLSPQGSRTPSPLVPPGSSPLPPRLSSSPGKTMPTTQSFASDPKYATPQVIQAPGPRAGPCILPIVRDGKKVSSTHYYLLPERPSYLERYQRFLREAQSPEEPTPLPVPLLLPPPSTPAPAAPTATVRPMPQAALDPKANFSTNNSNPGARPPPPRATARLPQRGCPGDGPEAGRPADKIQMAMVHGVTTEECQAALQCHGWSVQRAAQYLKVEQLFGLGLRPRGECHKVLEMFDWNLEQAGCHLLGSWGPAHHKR
T5 sequence (O60674 whole entry): as the sequence (O60674 whole entry V617F) above, with F617V counted along it
T12 sequence (Q15139 whole entry): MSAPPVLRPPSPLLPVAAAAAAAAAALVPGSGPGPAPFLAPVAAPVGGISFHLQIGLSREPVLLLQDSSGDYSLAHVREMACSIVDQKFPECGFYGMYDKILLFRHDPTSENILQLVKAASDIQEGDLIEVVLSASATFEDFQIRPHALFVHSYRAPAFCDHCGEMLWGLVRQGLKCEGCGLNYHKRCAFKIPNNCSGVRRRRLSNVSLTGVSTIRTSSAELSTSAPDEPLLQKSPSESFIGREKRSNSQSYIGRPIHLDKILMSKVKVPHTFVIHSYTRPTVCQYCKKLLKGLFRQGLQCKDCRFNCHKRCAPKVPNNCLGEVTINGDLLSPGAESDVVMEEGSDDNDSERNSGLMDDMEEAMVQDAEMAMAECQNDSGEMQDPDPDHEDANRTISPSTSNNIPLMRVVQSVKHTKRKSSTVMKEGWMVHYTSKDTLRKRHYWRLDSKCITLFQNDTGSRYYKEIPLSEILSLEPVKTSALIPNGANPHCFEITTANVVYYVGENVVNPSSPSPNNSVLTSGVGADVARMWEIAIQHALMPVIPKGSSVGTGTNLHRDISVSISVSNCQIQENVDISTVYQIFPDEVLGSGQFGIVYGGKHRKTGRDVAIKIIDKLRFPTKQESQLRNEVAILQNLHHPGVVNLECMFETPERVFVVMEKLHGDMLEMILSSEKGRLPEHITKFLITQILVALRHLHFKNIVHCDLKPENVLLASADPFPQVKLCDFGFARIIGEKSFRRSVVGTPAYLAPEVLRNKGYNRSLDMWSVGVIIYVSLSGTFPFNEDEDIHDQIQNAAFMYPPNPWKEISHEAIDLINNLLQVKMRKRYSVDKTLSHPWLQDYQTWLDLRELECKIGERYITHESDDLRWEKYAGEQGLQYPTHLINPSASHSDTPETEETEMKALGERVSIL
Chain of CYP 1A2 (P05177 whole entry): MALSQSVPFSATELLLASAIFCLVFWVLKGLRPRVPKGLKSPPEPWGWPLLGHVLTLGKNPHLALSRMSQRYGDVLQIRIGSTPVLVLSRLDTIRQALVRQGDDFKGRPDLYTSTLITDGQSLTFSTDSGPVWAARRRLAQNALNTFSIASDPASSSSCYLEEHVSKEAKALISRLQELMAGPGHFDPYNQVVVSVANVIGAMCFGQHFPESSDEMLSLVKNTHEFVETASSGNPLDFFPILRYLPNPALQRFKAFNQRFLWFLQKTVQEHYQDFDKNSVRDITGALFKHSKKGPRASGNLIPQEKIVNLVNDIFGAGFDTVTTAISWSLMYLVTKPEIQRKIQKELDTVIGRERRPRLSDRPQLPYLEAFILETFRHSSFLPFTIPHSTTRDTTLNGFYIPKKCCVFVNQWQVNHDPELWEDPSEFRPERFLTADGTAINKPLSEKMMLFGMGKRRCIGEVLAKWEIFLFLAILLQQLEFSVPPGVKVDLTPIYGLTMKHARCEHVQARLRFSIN

As for `Cc1cnc(Nc2ccc(OCCN3CCCC3)cc2)nc1NCc1ccco1` [Compound 1, 4-(furan-2-yl)methylamino-5-methyl-2-[4-{2-(pyrrolidin-1-yl)ethoxy}phenylamino]pyrimidine], the IC50 with K-562 cell line came to 5100 nM; on JAK1 it was 50 nM; against TYRO3/SKY it was 10700 nM; on c-MER it was 14300 nM; on JAK2(V617F), 95.2 nM; at JAK2 it was 50.1 nM. The IC50 is 113 nM at LRRK2; 105 nM on SIK2; 488 nM against RET; 38.8 nM against ACK1; 207 nM on JAK3; 443 nM on AXL. For the same compound, the IC50 is 167 nM against PKCmu/PRKD1; 5.9 nM on ARK5/NUAK1 [1]; 148 nM at mLK1/MAP3K9; 207 nM on AXL(R499C); 65.9 nM in the data set with MV-4-11 cells; 10.3 nM against FLT3. In addition, the 50% growth inhibitory concentration (GI50) in the data set with Ba/F3 parental came out at 1790 nM; with Ba/F3 FLT3-ITD, 92 nM.
For the compound `Fc1cnc(Nc2ccc(OCCN3CCCC3)cc2)nc1NCc1ccco1` [Compound 20, 4-(furan-2-yl) methylamino-5-fluoro-2-[4-{2-(pyrrolidin-1-yl)ethoxy}phenylamino]pyrimidine], the IC50 at JAK1 worked out at 177 nM; against JAK2(V617F), 238 nM; at JAK2, 99.1 nM; at ACK1, 101 nM; at ARK5/NUAK1 [1], 52.3 nM; on FLT3, 22 nM. Further, the results for the GI50 with Ba/F3 parental and in the data set on Ba/F3 FLT3-ITD were 6670 nM and 178 nM, respectively.
As to `FC(F)(F)c1cnc(Nc2ccc(OCCN3CCCC3)cc2)nc1NCc1ccco1` [Compound 21, 4-(furan-2-yl) methylamino-5-trifluoromethyl-2-[4-{2-(pyrrolidin-1-yl)ethoxy}phenylamino]pyrimidine], the concentration for 50% growth inhibition (GI50) with Ba/F3 parental was found to be 8060 nM; with Ba/F3 FLT3-ITD, 558 nM.
As for `Cc1nc(Nc2cnn(C3CCNCC3)c2)nc2c1N(C)C(=O)c1cc3ccccc3cc1N2C` [HTH-01-015], on ARK5/NUAK1 [2], the IC50 is 100 nM.
Take `CN(C)CCC=C1c2ccccc2CCc2ccccc21` [amitriptyline, reference compound]: at CYP 2C19, the inhibition at 20 min, 100 µM stood at 88%.
With `CC(=O)N1CCN(c2ccc(OCC3COC(Cn4ccnc4)(c4ccc(Cl)cc4Cl)O3)cc2)CC1` (stereo not shown) [ketoconazole, reference compound], the inhibition at 20 min, 10 µM at CYP 3A4 was found to be 98.7%.
Take αα-naphthoflavone [reference compound]: the “inhibitory activity against human CYP 1A2” value on CYP 1A2 turned out to be 97.7.

As usually defined, the GI50 is the concentration at which growth is held to half of that of the control.
